The values that follow come from PubChem BioAssay (NCI).

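Step 1: Grow cells in 96-well plates. Step 2: Expose to compound for 48 hours at 5 concentrations. Step 3: Interpolate endpoints linearly; if unreached, use highest concentration. TGI marks complete inhibition of growth.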 Where a SMILES comes first, the peptide text is derived from it. The star is where a group is joined. Boc = CC(C)(C)OC(=O)*

Common to all, as to assay: NCI-60 cell line screen, 48 h
The subject of experiment [1] is 786-0 renal.
In experiment [2] the test system is A498 renal.
Experiment [3] deals with A549 NSCLC.
Experiment [4] has as its system ACHN renal.
For experiment [5], the system named is HCC-2998 colon.
Experiment [6] has as its system HCT-116 colon.
In experiment [7] the test system is HCT-15 colon.
Experiment [8] has as its system MOLT-4 leukemia.
In experiment [9] the test system is NCI-H23 lung.
Experiment [10] concerns OVCAR-4 ovarian.
In experiment [11] the test system is SF-268 CNS.
The subject of experiment [12] is SK-MEL-2 melanoma.
Experiment [13] has as its system SK-MEL-5 melanoma.
The test system of experiment [14] is SNB-75 CNS.
Experiment [15] deals with UO-31 renal.
Experiment [16] relates to KM12 colon.
The test system of experiment [17] is NCI-H226 lung.

Turning to `COC(=O)/C=C/c1ccc2c(c1)CCC2`, the TGI was > 100 µM in experiment [1]; > 100 µM in experiment [2]; > 100 µM in experiment [3]; > 100 µM in [4]; > 100 µM in experiment [5]; 98 µM in experiment [6]. Also, the TGI in [7], in experiment [8], in [9], in experiment [10], in experiment [11] and in experiment [12] was > 100 µM in each case. Moreover, the TGI was > 100 µM in experiment [13], 91.4 µM in experiment [14] and > 100 µM in experiment [15].

Turning to `Cc1nc2c(n1CCO)C(=O)c1ccccc1C2=O`, the TGI in [1] is > 100 µM; in experiment [3], > 100 µM; in [4], > 100 µM; in experiment [5] it was > 100 µM; in experiment [6], 43 µM; in [7], > 100 µM. Further, the TGI is > 100 µM in experiment [16]; > 100 µM in experiment [8]; > 100 µM in experiment [17]; 30.8 µM in [9]; 99 µM in experiment [10]; > 100 µM in [11]. Also, the TGI in experiment [12] was 53 µM; in experiment [13], 23.4 µM; in [14] it was > 100 µM; in [15], > 100 µM.

In the case of `O=C1/C(=C/C=C/c2ccccc2)N=C(c2ccccc2)N1C1Nc2cc3c(cc2S1)NC(N1C(=O)/C(=C/C=C/c2ccccc2)N=C1c1ccccc1)S3` (configuration not stated), the TGI in experiment [1] is > 100 µM; in experiment [2] it was > 100 µM; in experiment [4] it was > 100 µM; in experiment [5], 37.2 µM; in experiment [6] it was > 100 µM; in experiment [7], > 100 µM. Also, the TGI in experiment [16] is > 100 µM; in experiment [8] it was 0.302 µM; in experiment [17], > 100 µM; in experiment [9], > 100 µM; in experiment [10] it was > 100 µM; in experiment [11], > 100 µM. Also, the TGI in [12], in experiment [13] and in experiment [15] was > 100 µM in each case.

`CNC(=O)CN(CC(=O)NC)C(=O)NC`: the TGI in experiment [1], in experiment [2], in experiment [3], in experiment [4], in [5] and in experiment [7] was > 100 µM throughout. In addition, the TGI in [16], in experiment [8], in experiment [17], in experiment [9], in [10] and in experiment [11] was > 100 µM each time. Moreover, the TGI in [12], in experiment [13], in [14] and in [15] was > 100 µM throughout.

For `CC(NC(=O)C(NC(=O)OC(C)(C)C)C(C)C)C(=O)N1CCCC1C(=O)NCC(=O)NC(C(=O)NCC(=O)O)C(C)C` (configuration not stated) (Boc-VAPGVG-OH; configuration not given here), the TGI in experiment [1], in [2], in experiment [4], in experiment [5], in experiment [6] and in experiment [7] was > 100 µM each time. Besides, the TGI in experiment [8], in experiment [9], in [10], in experiment [11], in [12] and in experiment [14] was > 100 µM in each case. The TGI in experiment [15] is > 100 µM.

On to `C[C@H]1O[C@@H](c2c(O)ccc3ccccc23)C[C@@H](N(C)C)C1O` (some centres not stated), for which the TGI in [1], in [2], in experiment [3], in experiment [4], in [5] and in experiment [6] was > 100 µM each time. Moreover, the TGI in experiment [7], in experiment [17], in experiment [9], in [10], in experiment [11] and in [12] was > 100 µM in each case. The TGI in experiment [13], in experiment [14] and in [15] was > 100 µM each time.

Consider `CCOC(=O)Cc1nnc2c(-c3ccccc3)nc3ccccc3n12`, for which the TGI in experiment [1] is > 100 µM; in experiment [2] it was > 100 µM; in [3], > 100 µM; in [4], 48.3 µM; in experiment [5], 64.8 µM; in experiment [6], > 100 µM. Moreover, the TGI in experiment [7], in [16], in [8], in [17], in [9] and in experiment [10] was > 100 µM in each case. Besides, the TGI was 39.7 µM in experiment [11], 95.2 µM in experiment [12], > 100 µM in experiment [13] and > 100 µM in [15].

Consider `O=S1(=O)OCCOS(=O)(=O)C1I`, for which the TGI in experiment [1], in experiment [2], in experiment [3], in experiment [5], in experiment [6] and in [16] was > 100 µM throughout. Also, the TGI in experiment [8], in experiment [17], in experiment [9], in experiment [10], in [11] and in experiment [12] was > 100 µM in each case. Besides, the TGI in experiment [13], in [14] and in experiment [15] was > 100 µM each time.

For `CN(C)c1ccc(-c2cc(=O)c3cc4c(cc3[nH]2)OCO4)cc1`, the TGI in experiment [1], in experiment [2], in [3], in [4], in [5] and in experiment [6] was > 100 µM in each case. In addition, the TGI in [7], in experiment [8], in experiment [17], in experiment [9], in experiment [10] and in experiment [11] was > 100 µM throughout. Moreover, the TGI in experiment [12], in [13], in experiment [14] and in experiment [15] was > 100 µM in each case.
